Data published in ChEMBL document CHEMBL1139774, “3-Hydroxy-4-methoxyindolomorphinans as delta opioid selective ligands” (Bioorg Med Chem Lett, 2007).

How the values were obtained:
[1] = biological target: Mu-type opioid receptor (Rattus norvegicus, UniProt P33535); assay: Displacement of [3H]DAMGO from rat recombinant mu opioid receptor expressed in C6 cells; format: cell-based
[2] = biological target: Kappa-type opioid receptor (Homo sapiens, UniProt P41145); assay: Displacement of [3H]U-69593 from human recombinant kappa opioid receptor expressed in CHO cells; format: cell-based
Chain of Kappa-type opioid receptor (P41145 whole entry): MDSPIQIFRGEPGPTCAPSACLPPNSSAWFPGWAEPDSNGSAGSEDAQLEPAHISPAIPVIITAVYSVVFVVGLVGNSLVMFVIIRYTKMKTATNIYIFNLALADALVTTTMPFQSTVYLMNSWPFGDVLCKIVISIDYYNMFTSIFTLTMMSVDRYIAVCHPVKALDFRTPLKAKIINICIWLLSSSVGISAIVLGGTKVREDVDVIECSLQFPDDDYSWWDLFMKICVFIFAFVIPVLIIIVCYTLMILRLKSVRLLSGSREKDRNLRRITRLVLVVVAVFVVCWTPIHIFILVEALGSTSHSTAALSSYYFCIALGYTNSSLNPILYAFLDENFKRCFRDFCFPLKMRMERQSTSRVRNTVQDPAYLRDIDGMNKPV

[3] = biological target: Delta-type opioid receptor (Rattus norvegicus, UniProt P33533); assay: Displacement of [3H]p-Cl-DPDPE from rat recombinant delta opioid receptor expressed in C6 cells; format: cell-based
Chain of Delta-type opioid receptor (P33533 whole entry): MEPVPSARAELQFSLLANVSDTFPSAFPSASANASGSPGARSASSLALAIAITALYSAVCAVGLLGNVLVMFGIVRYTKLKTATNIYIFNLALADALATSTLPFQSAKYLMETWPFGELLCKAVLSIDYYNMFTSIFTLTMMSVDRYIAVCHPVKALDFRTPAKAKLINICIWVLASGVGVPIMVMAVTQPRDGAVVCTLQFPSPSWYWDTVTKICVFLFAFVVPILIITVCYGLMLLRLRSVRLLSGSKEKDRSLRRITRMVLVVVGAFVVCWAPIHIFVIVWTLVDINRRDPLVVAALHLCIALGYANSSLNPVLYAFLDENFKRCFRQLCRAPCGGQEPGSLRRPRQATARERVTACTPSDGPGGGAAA

[4] = species: Rattus norvegicus; assay: Selectivity for rat recombinant delta opioid receptor over rat recombinant mu opioid receptor

Chain of Mu-type opioid receptor (P33535 whole entry): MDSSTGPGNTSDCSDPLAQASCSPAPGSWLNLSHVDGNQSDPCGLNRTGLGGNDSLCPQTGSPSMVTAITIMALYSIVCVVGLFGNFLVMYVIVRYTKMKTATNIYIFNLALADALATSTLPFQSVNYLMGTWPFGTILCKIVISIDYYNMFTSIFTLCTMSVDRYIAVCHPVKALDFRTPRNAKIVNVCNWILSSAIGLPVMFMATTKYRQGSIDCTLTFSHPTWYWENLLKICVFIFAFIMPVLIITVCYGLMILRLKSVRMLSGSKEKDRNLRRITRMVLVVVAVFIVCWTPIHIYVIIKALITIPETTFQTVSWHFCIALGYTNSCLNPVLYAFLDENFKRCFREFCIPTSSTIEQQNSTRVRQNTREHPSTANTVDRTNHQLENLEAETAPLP

Structure (SMILES) | Ki [1] [nM] | Ki [2] [nM] | Ki [3] [nM] | Ratio Ki [4]
COc1c(O)ccc2c1[C@]13CCN(C)[C@H](C2)[C@]1(O)Cc1c([nH]c2ccccc12)C3 | 474 | 582 | 4.5 | 105
COc1ccc2c(c1OC)[C@]13CCN(C)[C@H](C2)[C@]1(O)Cc1c([nH]c2ccccc12)C3 | 7590 | > 7000 | 41 | 185
COc1c(O)ccc2c1[C@]13CCN(CC4CC4)[C@H](C2)[C@]1(O)Cc1c([nH]c2ccccc12)C3 | 58 | 79 | 0.4 | 145
CN1CC[C@]23c4c5ccc(O)c4O[C@H]2c2[nH]c4ccccc4c2C[C@@]3(O)[C@H]1C5 [OXYMORPHINDOLE CHLORIDE] | 105 | 515 | 0.9 | 115
COc1ccc2c(c1OC)[C@]13CCN(CC4CC4)[C@H](C2)[C@]1(O)Cc1c([nH]c2ccccc12)C3 | 1720 | 1440 | 19 | 90
